Test results published in PMC12892976, “Alkylation-based optimization of antifungal FPPS inhibitors yields a potent, broad-spectrum lipophilic zoledronate derivative” (mBio, 2025).
≈ marks a conversion by molar mass, not a printed value. Where two headings read alike, the source gives them in different places.

Assays:
Aspergillus fumigatus [1] = assay: checkerboard drug interaction (FICI, MICc); type: cell-based;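 further: simplified diagonal checkerboard screen pairing antifungals with FPPS inhibitors against Aspergillus fumigatus, with FICI calculated under the Loewe additivity model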
Description: (§1) Drug interactions between antifungals and FPPS inhibitors were investigated using a simplified checkerboard diagonal screening method ([45]). […] FICIs were determined according to the Loewe additivity model ([17]).

eight fungal species [2] = assay: checkerboard interaction with azoles, summary across the eight species; type: cell-based; settings: geometric mean MIC in combination with azoles
From the text: Synergy between lipophilic FPPS inhibitors and azole antifungals was investigated by determining the fractional inhibitory concentration index (FICI) (Fig. 2; Table S1 Fig. S1) ([17]). […]. Derivatives PLA9 and 11, and PDA9, 11, and 12 antagonized azoles in C. albicans, C. neoformans, and C. deuterogattii, yet were largely synergistic in C. glabrata and S. cerevisiae. […].

[3] = system: Cryptococcus deuterogattii; assay: MIC/MFC broth microdilution (CLSI); settings: Cryptococcus deuterogattii;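 further: broth microdilution per CLSI M27-Ed4. MFC is the lowest concentration yielding no colonies when MIC broths are subcultured onto SDA plates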
Description: (§2) Antifungal susceptibility was determined by broth microdilution according to the CLSI guidelines described in M27-Ed4 ([16]). […] MFC was determined by back-plating drug-treated cultures from MIC broths onto SDA plates. The MFC was defined as the lowest concentration from which no colonies could be cultured.

eight fungal species [4] = assay: MIC/MFC summary across the eight fungal species of Table 1; type: cell-based
Description: The antifungal activity of these compounds was evaluated according to CLSI guidelines ([16]).

Aspergillus flavus [5] = assay: MIC/MFC broth microdilution (CLSI); settings: ATCC204304
Description: as §2

Candida albicans [6] = assay: MIC/MFC broth microdilution (CLSI); type: cell-based; settings: Candida albicans SC5314
Description: as §2

HEK-293T cells = assay: MTT reduction cytotoxicity assay; type: cell-based; settings: Homo sapiens, HEK-293T, 72 h, MTT, 72 h
Candida glabrata [7] = assay: checkerboard drug interaction (FICI, MICc);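 on all read-outs here: simplified diagonal checkerboard screen pairing antifungals with FPPS inhibitors, FICI calculated under the Loewe additivity model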; type: cell-based; settings: C. glabrata; for INH FD (MIC-MICc fold decrease): fold decrease of inhibitor MIC
Description: as §1

Cryptococcus neoformans [8] = assay: checkerboard drug interaction (FICI, MICc);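 on all read-outs here: antifungal plus FPPS inhibitor pairs tested against Cryptococcus neoformans by simplified diagonal checkerboard screening, FICI computed under the Loewe additivity model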; type: cell-based; settings: C. neoformans; for INH FD (MIC-MICc fold decrease): fold decrease of inhibitor MIC
Description: as §1

Trichophyton rubrum [9] = assay: checkerboard drug interaction (FICI, MICc);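 further: simplified diagonal checkerboard screen pairing azole antifungals with FPPS inhibitors, FICI calculated under the Loewe additivity model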; type: cell-based; settings: T. rubrum
Description: as §1

Candida albicans [10] = assay: checkerboard drug interaction (FICI, MICc);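 on all read-outs here: antifungal plus FPPS inhibitor combinations on Candida albicans tested by a simplified diagonal checkerboard screen, with FICI calculated under the Loewe additivity model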; type: cell-based; settings: C. albicans; for INH FD (MIC-MICc fold decrease): fold decrease of inhibitor MIC
Description: as §1

Candida glabrata [11] = assay: MIC/MFC broth microdilution (CLSI); settings: Nakaseomyces glabratus, CBS138;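 further: broth microdilution following CLSI M27-Ed4, MFC taken as the lowest drug level yielding no growth once MIC wells were subcultured on SDA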
Description: as §2

Cryptococcus neoformans [12] = assay: MIC/MFC broth microdilution (CLSI); settings: Cryptococcus neoformans;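 further: susceptibility testing followed the CLSI M27-Ed4 broth microdilution document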
Description: as §2

[13] = system: Cryptococcus deuterogattii; assay: checkerboard drug interaction (FICI, MICc);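 on all read-outs here: simplified diagonal checkerboard screen pairing antifungal drugs with FPPS inhibitors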; type: cell-based; settings: C. deuterogattii; for INH FD (MIC-MICc fold decrease): fold decrease of inhibitor MIC
Description: as §1

Saccharomyces cerevisiae [14] = assay: checkerboard drug interaction (FICI, MICc); type: cell-based; set-up: INH MICc / INH MICc (ITR:INH) / INH MICc (KET:INH) / INH MICc (FLC:INH): unit not given beside the values;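 further: simplified diagonal checkerboard screen pairing antifungals with FPPS inhibitors, FICI calculated under the Loewe additivity model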
Saccharomyces cerevisiae [15] = assay: MIC/MFC broth microdilution (CLSI); type: cell-based; settings: Saccharomyces cerevisiae S288c
Description: as §2

Aspergillus flavus [16] = assay: checkerboard drug interaction (FICI, MICc);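 further: simplified diagonal checkerboard screen pairing azole antifungals with FPPS inhibitors, FICI calculated under the Loewe additivity model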; type: cell-based; set-up: INH MICc (KET:INH) / INH MICc (FLC:INH): unit not given beside the values; settings: A. flavus
Aspergillus fumigatus [17] = assay: MIC/MFC broth microdilution (CLSI); settings: ATCC204305
Description: as §2

Trichophyton rubrum [18] = assay: MIC/MFC broth microdilution (CLSI); settings: Trichophyton rubrum
Description: as §2

[19] = Fractional Inhibitory Concentration Index, fluconazole + inhibitor
[20] = Fractional Inhibitory Concentration Index, itraconazole + inhibitor
[21] = Fractional Inhibitory Concentration Index, ketoconazole + inhibitor
[22] = MIC of the inhibitor in combination with fluconazole
[23] = MIC of the inhibitor in combination with itraconazole
[24] = MIC of the inhibitor in combination with ketoconazole
[25] = MIC-MICc fold decrease of fluconazole, negative = increase
[26] = MIC-MICc fold decrease of itraconazole, negative = increase
[27] = MIC-MICc fold decrease of ketoconazole, negative = increase
[28] = MIC-MICc fold decrease of the inhibitor, with fluconazole
[29] = MIC-MICc fold decrease of the inhibitor, with itraconazole
[30] = MIC-MICc fold decrease of the inhibitor, with ketoconazole
[31] = FLC:INH combination, MIC of the inhibitor in combination with FLC
[32] = FLC:INH combination, fold decrease of FLC MIC
[33] = ITR:INH combination, MIC of the inhibitor in combination with ITR
[34] = ITR:INH combination, fold decrease of ITR MIC
[35] = KET:INH combination, MIC of the inhibitor in combination with KET
[36] = KET:INH combination, fold decrease of KET MIC

CCCCCCCCCCCCN1CCC[C@H]1C(=O)N[C@H](CC(=O)OC)C(=O)OC [dmPDA12]
FICI (FLC:INH) (Aspergillus fumigatus [1]; [19]): 1.5 | FICI (ITR:INH) (Aspergillus fumigatus [1]; [20]): 0.26 | FICI (KET:INH) (Aspergillus fumigatus [1]; [21]): 2 | INH MICc (FLC:INH) (Aspergillus fumigatus [1]; [22]): 128 | INH MICc (ITR:INH) (Aspergillus fumigatus [1]; [23]): 1 | INH MICc (KET:INH) (Aspergillus fumigatus [1]; [24]): 128 | FLC FD (FLC:INH) (Aspergillus fumigatus [1]; [25]): 2 | ITR FD (ITR:INH) (Aspergillus fumigatus [1]; [26]): 4 | KET FD (KET:INH) (Aspergillus fumigatus [1]; [27]): 1 | INH FD (FLC:INH) (Aspergillus fumigatus [1]; [28]): 1 | INH FD (ITR:INH) (Aspergillus fumigatus [1]; [29]): 128 | INH FD (KET:INH) (Aspergillus fumigatus [1]; [30]): 1 | GM fungal MICc (eight fungal species [2]): 12 | MFC [3]: 32 µg/mL (≈ 75 µM) | MIC [3]: 8 µg/mL (≈ 18.8 µM) | MFC (eight fungal species [4]; across eight species, read-out: Geometric mean MFC): 140 µg/mL (≈ 327 µM) | MIC (eight fungal species [4]; geometric mean across eight species, read-out: GM fungal MIC): 49.4 µg/mL (≈ 116 µM) | MIC (eight fungal species [4]; read-out: Geometric mean MIC): 49.4 µg/mL (≈ 116 µM) | MFC (Aspergillus flavus [5]): > 128 µg/mL | MIC (Aspergillus flavus [5]): > 128 µg/mL | MFC (Candida albicans [6]): > 128 µg/mL | MIC (Candida albicans [6]): > 128 µg/mL | IC50 (HEK-293T cells; HEK-293T cells, read-out: IC50): 0.161 µg/mL (≈ 0.377 µM) | IC50 (HEK-293T cells; read-out: HEK IC50): 0.161 µg/mL (≈ 0.377 µM) | FICI (Candida glabrata [7]; FLC:INH combination): 2.5 | INH MICc (Candida glabrata [7]; [31]): 8 | FLC FD (MIC-MICc fold decrease) (Candida glabrata [7]; [32]): 2 | INH FD (MIC-MICc fold decrease) (Candida glabrata [7]; FLC:INH combination): 1 | FICI (Candida glabrata [7]; ITR:INH combination): 1.5 | INH MICc (Candida glabrata [7]; [33]): 4 | ITR FD (MIC-MICc fold decrease) (Candida glabrata [7]; [34]): 2 | INH FD (MIC-MICc fold decrease) (Candida glabrata [7]; ITR:INH combination): 2 | FICI (Candida glabrata [7]; KET:INH combination): 0.38 | INH MICc (Candida glabrata [7]; [35]): 1 | KET FD (MIC-MICc fold decrease) (Candida glabrata [7]; [36]): 8 | INH FD (MIC-MICc fold decrease) (Candida glabrata [7]; KET:INH combination): 8 | FICI (Cryptococcus neoformans [8]; FLC:INH combination): 1.25 | INH MICc (Cryptococcus neoformans [8]; [31]): 8 | FLC FD (MIC-MICc fold decrease) (Cryptococcus neoformans [8]; [32]): 4 | INH FD (MIC-MICc fold decrease) (Cryptococcus neoformans [8]; FLC:INH combination): 1 | FICI (Cryptococcus neoformans [8]; ITR:INH combination): 1.25 | INH MICc (Cryptococcus neoformans [8]; [33]): 8 | ITR FD (MIC-MICc fold decrease) (Cryptococcus neoformans [8]; [34]): 4 | INH FD (MIC-MICc fold decrease) (Cryptococcus neoformans [8]; ITR:INH combination): 1 | FICI (Cryptococcus neoformans [8]; KET:INH combination): 1.25 | INH MICc (Cryptococcus neoformans [8]; [35]): 8 | KET FD (MIC-MICc fold decrease) (Cryptococcus neoformans [8]; [36]): 4 | INH FD (MIC-MICc fold decrease) (Cryptococcus neoformans [8]; KET:INH combination): 1 | FICI (FLC:INH) (Trichophyton rubrum [9]; [19]): ≥4 | FICI (ITR:INH) (Trichophyton rubrum [9]; [20]): ≥4 | FICI (KET:INH) (Trichophyton rubrum [9]; [21]): ≥4 | INH MICc (FLC:INH) (Trichophyton rubrum [9]; [22]): 32 | INH MICc (ITR:INH) (Trichophyton rubrum [9]; [23]): 32 | INH MICc (KET:INH) (Trichophyton rubrum [9]; [24]): 32 | FLC FD (FLC:INH) (Trichophyton rubrum [9]; [25]): -2 | ITR FD (ITR:INH) (Trichophyton rubrum [9]; [26]): 8 | KET FD (KET:INH) (Trichophyton rubrum [9]; [27]): 4 | INH FD (FLC:INH) (Trichophyton rubrum [9]; [28]): -4 | INH FD (ITR:INH) (Trichophyton rubrum [9]; [29]): -4 | INH FD (KET:INH) (Trichophyton rubrum [9]; [30]): -4 | FICI (Candida albicans [10]; FLC:INH combination): 1.06 | INH MICc (Candida albicans [10]; [31]): 8 | FLC FD (MIC-MICc fold decrease) (Candida albicans [10]; [32]): 1 | INH FD (MIC-MICc fold decrease) (Candida albicans [10]; FLC:INH combination): 16 | FICI (Candida albicans [10]; ITR:INH combination): 0.53 | INH MICc (Candida albicans [10]; [33]): 4 | ITR FD (MIC-MICc fold decrease) (Candida albicans [10]; [34]): 2 | INH FD (MIC-MICc fold decrease) (Candida albicans [10]; ITR:INH combination): 32 | FICI (Candida albicans [10]; KET:INH combination): 0.53 | INH MICc (Candida albicans [10]; [35]): 4 | KET FD (MIC-MICc fold decrease) (Candida albicans [10]; [36]): 2 | INH FD (MIC-MICc fold decrease) (Candida albicans [10]; KET:INH combination): 32 | MFC (Candida glabrata [11]): 128 µg/mL (≈ 300 µM) | MIC (Candida glabrata [11]): 128 µg/mL (≈ 300 µM) | MFC (Cryptococcus neoformans [12]): 32 µg/mL (≈ 75 µM) | MIC (Cryptococcus neoformans [12]): 8 µg/mL (≈ 18.8 µM) | FICI ([13]; FLC:INH combination): 2 | INH MICc [13, 31]: 64 | FLC FD (MIC-MICc fold decrease) [13, 32]: 1 | INH FD (MIC-MICc fold decrease) ([13]; FLC:INH combination): 1 | FICI ([13]; ITR:INH combination): 0.38 | INH MICc [13, 33]: 8 | ITR FD (MIC-MICc fold decrease) [13, 34]: 4 | INH FD (MIC-MICc fold decrease) ([13]; ITR:INH combination): 8 | FICI ([13]; KET:INH combination): 0.16 | INH MICc [13, 35]: 8 | KET FD (MIC-MICc fold decrease) [13, 36]: 32 | INH FD (MIC-MICc fold decrease) ([13]; KET:INH combination): 8 | FICI (FLC:INH) (Saccharomyces cerevisiae [14]; [19]): 0.75 | FICI (ITR:INH) (Saccharomyces cerevisiae [14]; [20]): 1.06 | FICI (KET:INH) (Saccharomyces cerevisiae [14]; [21]): 0.56 | INH MICc (FLC:INH) (Saccharomyces cerevisiae [14]; [22]): 32 | INH MICc (ITR:INH) (Saccharomyces cerevisiae [14]; [23]): 4 | INH MICc (KET:INH) (Saccharomyces cerevisiae [14]; [24]): 32 | FLC FD (FLC:INH) (Saccharomyces cerevisiae [14]; [25]): 4 | ITR FD (ITR:INH) (Saccharomyces cerevisiae [14]; [26]): 1 | KET FD (KET:INH) (Saccharomyces cerevisiae [14]; [27]): 16 | INH FD (FLC:INH) (Saccharomyces cerevisiae [14]; [28]): 2 | INH FD (ITR:INH) (Saccharomyces cerevisiae [14]; [29]): 16 | INH FD (KET:INH) (Saccharomyces cerevisiae [14]; [30]): 2 | MFC (Saccharomyces cerevisiae [15]): > 128 µg/mL | MIC (Saccharomyces cerevisiae [15]): 64 µg/mL (≈ 150 µM) | FICI (FLC:INH) (Aspergillus flavus [16]; [19]): 1.5 | FICI (ITR:INH) (Aspergillus flavus [16]; [20]): 0.28 | FICI (KET:INH) (Aspergillus flavus [16]; [21]): 0.27 | INH MICc (FLC:INH) (Aspergillus flavus [16]; [22]): 128 | INH MICc (ITR:INH) (Aspergillus flavus [16]; [23]): 8 | INH MICc (KET:INH) (Aspergillus flavus [16]; [24]): 4 | FLC FD (FLC:INH) (Aspergillus flavus [16]; [25]): 1 | ITR FD (ITR:INH) (Aspergillus flavus [16]; [26]): 4 | KET FD (KET:INH) (Aspergillus flavus [16]; [27]): 4 | INH FD (FLC:INH) (Aspergillus flavus [16]; [28]): 2 | INH FD (ITR:INH) (Aspergillus flavus [16]; [29]): 32 | INH FD (KET:INH) (Aspergillus flavus [16]; [30]): 64 | MFC (Aspergillus fumigatus [17]): > 128 µg/mL | MIC (Aspergillus fumigatus [17]): 128 µg/mL (≈ 300 µM) | MFC (Trichophyton rubrum [18]): > 128 µg/mL | MIC (Trichophyton rubrum [18]): 8 µg/mL (≈ 18.8 µM)
